Data: article PMC8706783 (Pharmaceutics, 2021)
pIC50: −log10 of the molar value.

How the values were obtained:
[1] = test system: HLM (Phase 2); assay: Reaction phenotyping, HLM with UDPGA; settings: HLM (Phase 2)
[2] = test system: HLM (Phase 1); assay: Reaction phenotyping, HLM with NADPH; format: in vitro ADME, human
[3] = molecular target: T1, UGT2B7 (Homo sapiens, UniProt P16662); assay: Enzyme inhibition assay, UGT2B7; format: in vitro ADME; set-up: from tissue; settings: HLM; UGT2B7 zidovudine glucuronidation
T1 sequence (P16662 24-529): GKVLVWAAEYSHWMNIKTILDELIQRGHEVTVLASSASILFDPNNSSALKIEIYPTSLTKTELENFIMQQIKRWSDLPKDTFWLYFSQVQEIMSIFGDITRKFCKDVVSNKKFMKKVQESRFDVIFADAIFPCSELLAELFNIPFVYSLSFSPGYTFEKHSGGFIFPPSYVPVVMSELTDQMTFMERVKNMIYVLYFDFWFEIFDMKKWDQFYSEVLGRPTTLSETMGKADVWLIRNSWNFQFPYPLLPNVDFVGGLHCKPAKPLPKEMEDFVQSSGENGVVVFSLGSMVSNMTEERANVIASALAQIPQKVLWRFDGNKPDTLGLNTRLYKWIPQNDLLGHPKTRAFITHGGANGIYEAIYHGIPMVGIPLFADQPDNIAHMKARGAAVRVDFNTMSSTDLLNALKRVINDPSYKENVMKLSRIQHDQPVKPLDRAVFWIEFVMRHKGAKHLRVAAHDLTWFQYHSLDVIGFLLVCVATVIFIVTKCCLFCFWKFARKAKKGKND

[4] = test system: CYP3A4 mRNA; set-up: method as in PMID 23965226; settings: 10 μM DPV, colorectal tissue from three human donors; cited from earlier work
[5] = test system: primary human hepatocytes; assay: Cytotoxicity in CYP induction studies; format: cell-based; settings: 303 nM (100 ng/mL) in primary human hepatocytes

Cc1cc(C)c(Nc2ccnc(Nc3ccc(C#N)cc3)n2)c(C)c1 [DPV, Dapivirine]
% DPV Remaining at 60 min without MIC ([1]; 10 μM DPV): 97.15% | % DPV Remaining at 60 min with MIC ([1]; 10 μM DPV and 30 μM MIC): 95.59% | % DPV Remaining at 60 min without MIC ([2]; 10 μM DPV): 37.14% | % DPV Remaining at 60 min with MIC ([2]; 10 μM DPV and 30 μM MIC): 88.39% | pIC50 [3]: 4.76 | CYP3A4 mRNA change [4]: induction in two donors | cytotoxicity [5]: no cytotoxicity observed
